Source: US20110086096A1, “MODIFIED RELEASE 1- [ (3-HYDROXY-ADAMANT-1-YLAMINO)-ACETYL] -PYRROLIDINE-2 (S) -CARBONITRILE FORMULATION” (priority 2005, published 2011)

How the values were obtained:
[1] = Drug substance and tablet retest date; format: physicochemical; details: drug substance, storage at 25° C.
Description: The vildagliptin drug substance (DS) is sensitive to moisture. Very tight packaging is necessary. Current retest date is 30 months with storage at 25° C.
For the CSF 100 mg, 150 mg and 200 mg strengths, the stability data are available up to 12 months at 25° C./60% RH and 30° 60% RH. […] The composition of vildagliptin 150 mg modified release tablets is bracketed by 100 mg and 200 mg strengths. Therefore, the stability of 150 mg tablets is expected to be same as 100 mg and 200 mg strengths. Thus a re-test period similar to that of 100 and 200 mg strengths is applied for 150 mg tablets.

[2] = Water solubility of drug substance; format: physicochemical; details: heading: water solubility
Source text: A once a day MR dosage form is likely to require a significant level of polymer load for retarding drug diffusion. During the development, the applicant has selected monolithic formulation with low risk for dose dumping, eliminating coating technologies in favor of a matrix formulation. After intensive studies on compatibility, ability to retard diffusion pharmacokinetic and pharmacodynamic studies, and regulatory acceptance requirements the applicant narrowed the polymer choice to hydrophilic polymers, especially hydroxpropyl methyl cellulose (HPMC).

Question: Which results are given for `N#C[C@@H]1CCCN1C(=O)CNC12CC3CC(CC(O)(C3)C1)C2` [vildagliptin, 1-[(3-Hydroxy-adamant-1-ylamino)-acetyl]-pyrrolidine-2(S)-carbonitrile]?
Answer: retest date [1]: 30 months; solubility [2]: > 125 mg/mL
